Results published in ChEMBL document CHEMBL1201862, “PubChem BioAssay data set” (2004).
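Values below derive from 48-hour exposures of cells grown in 96-well plates, with endpoints linearly interpolated between the two concentrations bracketing the appropriate inhibition level. GI50 marks 50% less growth.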 Active and inactive are the calls of the source. No stated cut-off is given here; in the data, active = GI50 up to about 1.1 µM and inactive = higher.

How the values were obtained:
Assay in all cases: DTP human tumour cell line panel, 48 h
[1] = system: HCT-116
[2] = system: HOP-62
[3] = system: HT-29
[4] = system: K562
[5] = system: KM12
[6] = system: LOX IMVI
[7] = system: M14
[8] = system: NCI-H226
[9] = system: OVCAR-4
[10] = system: OVCAR-8
[11] = system: SF-295
[12] = system: SK-MEL-28
[13] = system: SK-OV-3
[14] = system: SN12C
[15] = system: TK-10
[16] = system: UACC-257

Measured: GI50

CC(C)(C)C1CCP(=O)(c2ccccc2)CC1 (stereo unspecified)
inactive: [1] > 100 µM | [2] > 100 µM | [3] > 100 µM | [4] > 100 µM | [5] > 100 µM | [6] > 100 µM | [7] > 100 µM | [8] > 100 µM | [9] > 100 µM | [10] > 100 µM | [11] > 100 µM | [12] > 100 µM | [13] > 100 µM | [14] > 100 µM | [15] > 100 µM | [16] > 100 µM

O=c1cccccc1NCCCNc1cccccc1=O
inactive: [1] > 100 µM | [2] > 100 µM | [3] 88.3 µM | [4] > 100 µM | [5] > 100 µM | [6] > 100 µM | [7] > 100 µM | [8] > 100 µM | [10] > 100 µM | [11] > 100 µM | [13] > 100 µM | [14] 15.9 µM | [16] > 100 µM

Cc1ccc(Cl)c(NC(=O)C(=O)C(C(=O)c2ccncc2)C2OC(=O)c3ccccc32)c1 (stereo unspecified)
inactive: [1] > 100 µM | [2] > 100 µM | [3] > 100 µM | [4] > 100 µM | [6] > 100 µM | [7] > 100 µM | [8] > 100 µM | [9] > 100 µM | [10] > 100 µM | [11] > 100 µM | [12] > 100 µM | [13] > 100 µM | [14] > 100 µM | [15] > 100 µM | [16] > 100 µM

CN(CC(=O)O)S(=O)(=O)c1ccc(F)cc1
inactive: [3] > 100 µM | [4] > 100 µM | [5] > 100 µM | [6] > 100 µM | [7] > 100 µM | [9] > 100 µM | [10] > 100 µM | [11] > 100 µM | [12] > 100 µM | [13] > 100 µM | [14] > 100 µM | [15] > 100 µM | [16] > 100 µM

CCc1ccccc1NC(=O)/C(CC(=O)c1c(C)[n+]([O-])c2ccccc2[n+]1[O-])=N\NS(=O)(=O)c1ccc(C)cc1
inactive: [1] 16.8 µM | [2] > 100 µM | [3] 38.7 µM | [4] 27.2 µM | [5] 36.9 µM | [7] 32.8 µM | [8] > 100 µM | [9] 22.5 µM | [10] 27 µM | [11] > 100 µM | [12] 47.9 µM | [13] > 100 µM | [14] 28.8 µM | [15] > 100 µM | [16] 23.9 µM

CCCCN1C(=O)C2c3[nH]c4ccccc4c3C3CCCCC3C2C1=O.CCCCN1C(=O)C2c3[nH]c4ccccc4c3[C@@H]3CCCCC3C2C1=O (stereo unspecified)
inactive: [1] 9.42 µM | [2] 6.4 µM | [3] 28.8 µM | [4] 14.7 µM | [6] 10.9 µM | [7] 13.4 µM | [9] 2.38 µM | [10] 11.8 µM | [11] 7.93 µM | [12] 29.6 µM | [13] 22.3 µM | [14] 35.9 µM | [15] 13.7 µM

O/N=C(\c1nc2ccc(Cl)cc2nc1O)C(O)c1ccc(Cl)cc1Cl (stereo unspecified)
inactive: [1] > 100 µM | [2] > 100 µM | [3] > 100 µM | [4] > 100 µM | [5] > 100 µM | [6] > 100 µM | [7] > 100 µM | [8] > 100 µM | [9] > 100 µM | [10] > 100 µM | [11] > 100 µM | [12] > 100 µM | [13] > 100 µM | [14] > 100 µM | [16] > 100 µM

COc1cc2c[n+]3ccc4cc(OC)c(OC)cc4c3cc2cc1O
inactive: [1] > 100 µM | [3] > 100 µM | [4] > 100 µM | [5] > 100 µM | [6] > 100 µM | [7] > 100 µM | [10] > 100 µM | [11] > 100 µM | [12] > 100 µM | [13] > 100 µM | [14] > 100 µM | [15] > 100 µM | [16] > 100 µM

CC(C)[Si](OCC1CC(C[C@H]2CC(C[C@H]3C[C@@H](CO[Si](C(C)C)(C(C)C)C(C)C)OC(C)(C)O3)OC(C)(C)O2)OC(C)(C)O1)(C(C)C)C(C)C (stereo partly specified)
inactive: [1] > 100 µM | [2] > 100 µM | [3] > 100 µM | [4] > 100 µM | [5] > 100 µM | [6] > 100 µM | [7] > 100 µM | [8] > 100 µM | [9] > 100 µM | [10] > 100 µM | [11] > 100 µM | [12] > 100 µM | [13] > 100 µM | [15] > 100 µM | [16] > 100 µM

COCC(O)CN1C(N)=NC(O)C1O (stereo unspecified)
inactive: [2] > 100 µM | [3] > 100 µM | [5] > 100 µM | [6] > 100 µM | [7] > 100 µM | [8] > 100 µM | [10] > 100 µM | [11] > 100 µM | [12] > 100 µM | [14] > 100 µM | [15] > 100 µM | [16] > 100 µM

COc1cc(C2C(C(=O)Nc3cc(F)c(F)cc3F)=C(C)NC(C)=C2C(=O)Nc2cc(F)c(F)cc2F)ccc1O
inactive: [2] 12.8 µM | [3] 29 µM | [4] 18.4 µM | [5] 13.3 µM | [6] 15.2 µM | [7] 25.2 µM | [8] 23.6 µM | [9] 17.3 µM | [10] 25.4 µM | [11] 21.3 µM | [12] 25.4 µM | [14] 17.7 µM | [15] 28.3 µM | [16] 17.9 µM

C[n+]1cccc(NC(=O)c2ccc(NC(=O)C34CCC(C(=O)Nc5ccc(C(=O)Nc6ccc[n+](C)c6)cc5)(CC3)CC4)cc2)c1
inactive: [1] 33.5 µM | [2] 25.5 µM | [3] 45.9 µM | [4] 2.55 µM | [5] 1.92 µM | [6] 38.5 µM | [7] > 100 µM | [8] > 100 µM | [9] > 100 µM | [10] 42.7 µM | [11] 19.7 µM | [12] 42.2 µM | [14] 3.23 µM | [16] 15.7 µM

COc1ccc2oc(-c3cc4cc(OC)ccc4o3)cc2c1
inactive: [2] > 100 µM | [4] > 100 µM | [5] > 100 µM | [6] > 100 µM | [7] > 100 µM | [9] > 100 µM | [10] > 100 µM | [11] > 100 µM | [12] > 100 µM | [13] > 100 µM | [14] > 100 µM | [15] > 100 µM | [16] > 100 µM
